As usually defined, the MIC is the least concentration at which growth counts as inhibited.

The record followed here is publication PMC5345905 (Journal of the American Chemical Society, 2017).

The subject of this experiment is Bacillus subtilis 168. Kind of experiment: minimal inhibitory concentration. In kind it is cell-based. To be noted: purified unique compounds, quantitative MIC.

thiocillin [WT]: the MIC worked out at 0.5 µg/mL.
